Assay results taken from ChEMBL document CHEMBL4387741, “Optimization of novel reversible Bruton's tyrosine kinase inhibitors identified using Tethering-fragment-based screens” (Bioorg Med Chem, 2019).

How the values were obtained:
[1] = target: Cyclin-dependent kinase 4/cyclin D1 (Homo sapiens) (UniProt P11802+P24385); test: Inhibition of wild-type human full length CDK4/cyclinD1 (M1 to E303 residues) expressed in mammalian expression system at 1 uM by Kinomescan method relative to control
[2] = target: Proto-oncogene tyrosine-protein kinase Src (Homo sapiens) (UniProt P12931); test: Inhibition of wild-type human partial length SRC (L240 to L536 residues) expressed in bacterial expression system at 1 uM by Kinomescan method relative to control
Proto-oncogene tyrosine-protein kinase Src (Homo sapiens), sequence (P12931 2-536 limits assumed): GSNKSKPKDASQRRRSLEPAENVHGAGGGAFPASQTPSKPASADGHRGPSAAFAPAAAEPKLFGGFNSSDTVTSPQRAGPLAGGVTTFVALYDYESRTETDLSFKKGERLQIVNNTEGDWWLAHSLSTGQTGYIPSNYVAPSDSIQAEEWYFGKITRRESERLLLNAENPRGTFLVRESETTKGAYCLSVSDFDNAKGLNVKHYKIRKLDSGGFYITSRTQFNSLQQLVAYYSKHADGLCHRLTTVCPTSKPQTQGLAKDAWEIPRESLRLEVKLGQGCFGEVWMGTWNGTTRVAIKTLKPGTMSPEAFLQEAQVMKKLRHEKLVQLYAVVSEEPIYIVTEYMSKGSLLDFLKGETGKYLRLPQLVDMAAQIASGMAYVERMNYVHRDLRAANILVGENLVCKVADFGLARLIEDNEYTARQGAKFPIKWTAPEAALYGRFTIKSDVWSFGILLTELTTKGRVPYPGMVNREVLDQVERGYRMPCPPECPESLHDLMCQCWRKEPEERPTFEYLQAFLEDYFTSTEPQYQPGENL

[3] = target: Ribosomal protein S6 kinase alpha-3 (Homo sapiens) (UniProt P51812); test: Inhibition of wild-type human partial length N-terminal RSK2 kinase domain 1 (M1 to D394 residues) expressed in mammalian expression system at 1 uM by Kinomescan method relative to control
Ribosomal protein S6 kinase alpha-3 (Homo sapiens), sequence (P51812 whole entry, the tested form may be a part): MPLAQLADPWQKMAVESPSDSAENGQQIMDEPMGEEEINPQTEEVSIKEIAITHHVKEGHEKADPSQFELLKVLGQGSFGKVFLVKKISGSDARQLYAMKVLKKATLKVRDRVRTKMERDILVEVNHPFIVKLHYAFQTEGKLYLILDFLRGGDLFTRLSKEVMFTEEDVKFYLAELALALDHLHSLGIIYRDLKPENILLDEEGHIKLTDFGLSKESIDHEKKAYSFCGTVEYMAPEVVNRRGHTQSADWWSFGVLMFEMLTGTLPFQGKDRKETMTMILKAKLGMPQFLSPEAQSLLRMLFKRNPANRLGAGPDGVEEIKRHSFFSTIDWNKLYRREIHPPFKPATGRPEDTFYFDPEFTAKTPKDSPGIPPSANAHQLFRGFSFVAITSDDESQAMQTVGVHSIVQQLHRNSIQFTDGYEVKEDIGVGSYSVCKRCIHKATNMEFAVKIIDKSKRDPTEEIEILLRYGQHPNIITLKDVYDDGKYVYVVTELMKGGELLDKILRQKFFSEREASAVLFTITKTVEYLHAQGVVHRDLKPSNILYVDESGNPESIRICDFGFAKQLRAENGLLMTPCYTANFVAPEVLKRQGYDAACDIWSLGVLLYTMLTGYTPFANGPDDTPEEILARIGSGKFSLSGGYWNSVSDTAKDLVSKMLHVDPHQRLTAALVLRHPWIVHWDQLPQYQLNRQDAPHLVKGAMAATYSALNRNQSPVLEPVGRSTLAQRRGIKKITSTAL

[4] = target: Serine/threonine-protein kinase PLK3 (Homo sapiens) (UniProt Q9H4B4); test: Inhibition of wild-type human partial length PLK3 (A42 to L334 residues) expressed in mammalian expression system at 1 uM by Kinomescan method relative to control
[5] = target: Ephrin type-A receptor 7 (Homo sapiens) (UniProt Q15375); test: Inhibition of wild-type human partial length EPHA7 (Y608 to S912 residues) expressed in bacterial expression system at 1 uM by Kinomescan method relative to control
[6] = target: Tyrosine-protein kinase receptor TYRO3 (Homo sapiens) (UniProt Q06418); test: Inhibition of wild-type human partial length TYRO3 (S497 to T814 residues) expressed in bacterial expression system at 1 uM by Kinomescan method relative to control
[7] = target: Epithelial discoidin domain-containing receptor 1 (Homo sapiens) (UniProt Q08345); test: Inhibition of wild-type human partial length DDR1 (R565 to V876 residues) expressed in bacterial expression system at 1 uM by Kinomescan method relative to control
Epithelial discoidin domain-containing receptor 1 (Homo sapiens), sequence (Q08345 whole entry, the tested form may be a part): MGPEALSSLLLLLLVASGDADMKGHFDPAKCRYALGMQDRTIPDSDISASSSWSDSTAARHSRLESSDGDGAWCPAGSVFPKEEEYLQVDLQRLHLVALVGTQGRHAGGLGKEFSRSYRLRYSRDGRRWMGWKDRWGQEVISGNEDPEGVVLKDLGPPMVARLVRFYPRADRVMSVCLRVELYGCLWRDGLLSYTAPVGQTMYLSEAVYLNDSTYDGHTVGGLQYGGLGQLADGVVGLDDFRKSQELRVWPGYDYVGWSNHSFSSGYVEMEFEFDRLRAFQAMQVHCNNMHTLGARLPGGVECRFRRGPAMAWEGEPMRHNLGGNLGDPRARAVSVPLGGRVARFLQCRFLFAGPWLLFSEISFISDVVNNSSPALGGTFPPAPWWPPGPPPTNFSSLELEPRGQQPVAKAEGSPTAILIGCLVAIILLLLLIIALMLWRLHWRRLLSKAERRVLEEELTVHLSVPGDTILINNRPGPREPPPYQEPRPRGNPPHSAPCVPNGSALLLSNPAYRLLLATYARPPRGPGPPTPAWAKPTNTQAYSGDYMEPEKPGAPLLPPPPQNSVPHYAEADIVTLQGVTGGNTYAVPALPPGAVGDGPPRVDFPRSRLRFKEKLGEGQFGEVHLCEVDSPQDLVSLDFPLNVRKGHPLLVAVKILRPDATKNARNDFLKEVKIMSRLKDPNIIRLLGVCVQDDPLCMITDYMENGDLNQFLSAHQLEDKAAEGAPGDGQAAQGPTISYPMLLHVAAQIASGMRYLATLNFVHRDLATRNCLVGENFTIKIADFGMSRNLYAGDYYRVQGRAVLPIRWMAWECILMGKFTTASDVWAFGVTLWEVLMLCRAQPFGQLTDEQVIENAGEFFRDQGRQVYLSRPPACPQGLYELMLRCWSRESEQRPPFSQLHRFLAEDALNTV

[8] = target: Serine/threonine-protein kinase MRCK beta (Homo sapiens) (UniProt Q9Y5S2); test: Inhibition of wild-type human partial length MRCKB (L56 to S417 residues) expressed in bacterial expression system at 1 uM by Kinomescan method relative to control
[9] = target: Serine/threonine-protein kinase SIK2 (Homo sapiens) (UniProt Q9H0K1); test: Inhibition of wild-type human full length SIK2 (M1 to N926 residues) expressed in bacterial expression system at 1 uM by Kinomescan method relative to control
[10] = target: Serine/threonine-protein kinase Chk2 (Homo sapiens) (UniProt O96017); test: Inhibition of wild-type human partial length CHEK2 (S253 to E574 residues) expressed in bacterial expression system at 1 uM by Kinomescan method relative to control
[11] = target: Cyclin-dependent kinase 5 (Homo sapiens) (UniProt Q00535); test: Inhibition of wild-type human full length CDK5 (M1 to P292 residues) expressed in bacterial expression system at 1 uM by Kinomescan method relative to control
[12] = target: Ephrin type-B receptor 2 (Homo sapiens) (UniProt P29323); test: Inhibition of wild-type human partial length EPHB2 (I597 to L902 residues) expressed in bacterial expression system at 1 uM by Kinomescan method relative to control
[13] = target: Fibroblast growth factor receptor 1 (Homo sapiens) (UniProt P11362); test: Inhibition of wild-type human partial length FGFR1 (P357 to V669 residues) expressed in bacterial expression system at 10 uM by Kinomescan method relative to control
[14] = target: Cyclin-dependent kinase 16 (Homo sapiens) (UniProt Q00536); test: Inhibition of wild-type human partial length PCTK1 (G160 to A474 residues) expressed in mammalian expression system at 10 uM by Kinomescan method relative to control
[15] = target: SRSF protein kinase 1 (Homo sapiens) (UniProt Q96SB4); test: Inhibition of wild-type human full length SRPK1 (M1 to S655 residues) expressed in bacterial expression system at 10 uM by Kinomescan method relative to control
[16] = system: Tyrosine-protein kinase ABL1 (Homo sapiens), P00519 [E255K]; test: Inhibition of human phosphorylated ABL1 E255K mutant (S229 to K512 residues) expressed in mammalian expression system at 10 uM by Kinomescan method relative to control
Tyrosine-protein kinase ABL1 (Homo sapiens), P00519 [E255K], sequence (P00519 whole entry E255K, the tested form may be a part): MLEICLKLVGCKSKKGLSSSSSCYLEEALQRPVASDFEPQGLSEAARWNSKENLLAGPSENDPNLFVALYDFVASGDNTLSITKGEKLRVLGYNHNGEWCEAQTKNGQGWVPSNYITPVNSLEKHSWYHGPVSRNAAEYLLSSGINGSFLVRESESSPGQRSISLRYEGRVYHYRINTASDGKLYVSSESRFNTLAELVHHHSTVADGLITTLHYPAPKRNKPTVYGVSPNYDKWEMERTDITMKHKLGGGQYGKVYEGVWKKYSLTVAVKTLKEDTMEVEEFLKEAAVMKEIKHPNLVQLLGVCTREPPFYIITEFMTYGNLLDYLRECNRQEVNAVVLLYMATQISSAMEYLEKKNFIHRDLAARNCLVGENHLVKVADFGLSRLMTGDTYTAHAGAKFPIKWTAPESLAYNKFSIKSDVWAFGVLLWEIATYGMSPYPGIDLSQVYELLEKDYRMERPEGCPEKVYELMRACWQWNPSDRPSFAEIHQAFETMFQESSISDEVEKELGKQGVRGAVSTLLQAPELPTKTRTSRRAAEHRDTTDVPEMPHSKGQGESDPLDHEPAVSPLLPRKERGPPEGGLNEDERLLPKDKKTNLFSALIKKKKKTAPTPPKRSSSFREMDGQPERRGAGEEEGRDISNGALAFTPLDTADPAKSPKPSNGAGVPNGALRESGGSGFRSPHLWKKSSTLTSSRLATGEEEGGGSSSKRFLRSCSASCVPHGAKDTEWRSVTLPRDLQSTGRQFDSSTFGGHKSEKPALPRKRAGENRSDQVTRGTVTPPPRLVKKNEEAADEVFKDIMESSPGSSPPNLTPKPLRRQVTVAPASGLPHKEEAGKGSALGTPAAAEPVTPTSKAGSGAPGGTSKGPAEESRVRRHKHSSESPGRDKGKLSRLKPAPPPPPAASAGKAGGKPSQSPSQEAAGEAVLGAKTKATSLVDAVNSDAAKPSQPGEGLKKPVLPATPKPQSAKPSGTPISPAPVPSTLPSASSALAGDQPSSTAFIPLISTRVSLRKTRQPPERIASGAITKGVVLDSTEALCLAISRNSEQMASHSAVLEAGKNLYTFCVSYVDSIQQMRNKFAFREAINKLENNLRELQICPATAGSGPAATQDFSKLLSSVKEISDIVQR

[17] = target: MAP/microtubule affinity-regulating kinase 3 (Homo sapiens) (UniProt P27448); test: Inhibition of wild-type human full length MARK3 (M1 to L729 residues) expressed in bacterial expression system at 10 uM by Kinomescan method relative to control
[18] = target: Serine/threonine-protein kinase 25 (Homo sapiens) (UniProt O00506); test: Inhibition of wild-type human partial length YSK1 (V14 to H295 residues) expressed in bacterial expression system at 10 uM by Kinomescan method relative to control
[19] = target: Cyclin-G-associated kinase (Homo sapiens) (UniProt O14976); test: Inhibition of wild-type human partial length GAK (G13 to Y338 residues) expressed in bacterial expression system at 10 uM by Kinomescan method relative to control
[20] = target: Serine/threonine-protein kinase DCLK2 (Homo sapiens) (UniProt Q8N568); test: Inhibition of wild-type human partial length DCAMKL2 (K273 to V664 residues) expressed in bacterial expression system at 10 uM by Kinomescan method relative to control
Serine/threonine-protein kinase DCLK2 (Homo sapiens), sequence (Q8N568 whole entry, the tested form may be a part): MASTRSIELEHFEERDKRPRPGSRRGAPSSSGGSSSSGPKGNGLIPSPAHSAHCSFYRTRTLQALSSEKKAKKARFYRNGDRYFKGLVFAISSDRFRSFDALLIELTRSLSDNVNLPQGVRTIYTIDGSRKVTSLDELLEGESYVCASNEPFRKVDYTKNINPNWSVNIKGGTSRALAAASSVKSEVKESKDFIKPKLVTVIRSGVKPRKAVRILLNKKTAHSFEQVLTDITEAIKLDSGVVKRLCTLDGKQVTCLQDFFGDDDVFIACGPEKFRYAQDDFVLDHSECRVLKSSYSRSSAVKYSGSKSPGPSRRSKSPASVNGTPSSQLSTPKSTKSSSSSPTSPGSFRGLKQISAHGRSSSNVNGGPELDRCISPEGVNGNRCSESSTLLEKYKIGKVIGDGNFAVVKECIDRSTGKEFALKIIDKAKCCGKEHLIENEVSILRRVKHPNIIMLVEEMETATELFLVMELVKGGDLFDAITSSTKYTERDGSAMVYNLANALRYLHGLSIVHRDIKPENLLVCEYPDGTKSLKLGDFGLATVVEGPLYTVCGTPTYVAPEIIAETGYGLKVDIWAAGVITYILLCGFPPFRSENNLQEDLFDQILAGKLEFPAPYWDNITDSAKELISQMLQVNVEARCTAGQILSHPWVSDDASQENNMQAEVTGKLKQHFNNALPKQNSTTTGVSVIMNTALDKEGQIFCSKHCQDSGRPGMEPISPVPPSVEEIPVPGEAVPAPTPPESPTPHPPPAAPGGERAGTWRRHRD

[21] = target: Serine/threonine-protein kinase ICK (Homo sapiens) (UniProt Q9UPZ9); test: Inhibition of wild-type human partial length ICK (M1 to P314 residues) expressed in mammalian expression system at 10 uM by Kinomescan method relative to control
[22] = target: Serine/threonine-protein kinase tousled-like 1 (Homo sapiens) (UniProt Q9UKI8); test: Inhibition of wild-type human partial length TLK1 (K447 to A754 residues) expressed in bacterial expression system at 10 uM by Kinomescan method relative to control
[23] = target: Aurora kinase B (Homo sapiens) (UniProt Q96GD4); test: Inhibition of wild-type human partial length AURKB (D25 to A303 residues) expressed in mammalian expression system at 10 uM by Kinomescan method relative to control
Aurora kinase B (Homo sapiens), sequence (Q96GD4 whole entry, the tested form may be a part): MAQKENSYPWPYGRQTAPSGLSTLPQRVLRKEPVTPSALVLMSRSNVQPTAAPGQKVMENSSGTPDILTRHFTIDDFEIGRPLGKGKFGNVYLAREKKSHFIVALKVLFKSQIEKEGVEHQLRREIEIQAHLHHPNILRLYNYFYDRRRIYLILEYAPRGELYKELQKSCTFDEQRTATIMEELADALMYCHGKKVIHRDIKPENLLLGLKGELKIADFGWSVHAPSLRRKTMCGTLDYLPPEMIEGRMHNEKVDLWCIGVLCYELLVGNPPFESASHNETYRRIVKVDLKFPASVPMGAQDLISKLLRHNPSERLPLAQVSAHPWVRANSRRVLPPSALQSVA

[24] = target: Serine/threonine-protein kinase OSR1 (Homo sapiens) (UniProt O95747); test: Inhibition of wild-type human full length OSR1 (M1 to S527 residues) expressed in mammalian expression system at 10 uM by Kinomescan method relative to control
Serine/threonine-protein kinase OSR1 (Homo sapiens), sequence (O95747 2-527 limits assumed): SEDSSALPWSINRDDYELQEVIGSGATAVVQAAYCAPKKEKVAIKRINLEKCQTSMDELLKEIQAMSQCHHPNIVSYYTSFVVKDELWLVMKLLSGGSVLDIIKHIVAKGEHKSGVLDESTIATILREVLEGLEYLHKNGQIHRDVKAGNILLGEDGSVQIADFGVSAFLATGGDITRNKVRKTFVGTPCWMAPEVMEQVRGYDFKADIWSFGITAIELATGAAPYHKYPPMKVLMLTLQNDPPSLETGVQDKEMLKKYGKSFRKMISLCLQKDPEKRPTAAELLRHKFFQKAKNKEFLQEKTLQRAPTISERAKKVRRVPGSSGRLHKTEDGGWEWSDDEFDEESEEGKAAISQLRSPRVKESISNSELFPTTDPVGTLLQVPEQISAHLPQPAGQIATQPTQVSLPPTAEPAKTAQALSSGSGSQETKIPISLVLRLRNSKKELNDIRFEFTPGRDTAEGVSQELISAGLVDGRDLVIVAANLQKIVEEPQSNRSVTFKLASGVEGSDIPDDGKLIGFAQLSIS

[25] = target: Ephrin type-B receptor 4 (Homo sapiens) (UniProt P54760); test: Inhibition of wild-type human partial length EPHB4 (H585 to G892 residues) expressed in bacterial expression system at 10 uM by Kinomescan method relative to control
[26] = target: Tyrosine-protein kinase ABL1 (Homo sapiens) (UniProt P00519); test: Inhibition of wild-type human phosphorylated ABL1 (S229 to K512 residues) expressed in mammalian expression system at 10 uM by Kinomescan method relative to control
[27] = target: Mitogen-activated protein kinase 7 (Homo sapiens) (UniProt Q13164); test: Inhibition of wild-type human partial length ERK5 (M1 to A409 residues) expressed in bacterial expression system at 10 uM by Kinomescan method relative to control

SMILES: O=C(Nc1cccc([C@@H]2CN(c3ncnc4[nH]ccc34)CCN2CCO)c1)Nc1c(F)cccc1N1CCCC1
- inhibition [1]: 100%
- inhibition [2]: 71%
- inhibition [3]: 94%
- inhibition [4]: 74%
- inhibition [5]: 100%
- inhibition [6]: 100%
- inhibition [7]: 82%
- inhibition [8]: 100%
- inhibition [9]: 93%
- inhibition [10]: 69%
- inhibition [11]: 68%
- inhibition [12]: 85%

SMILES: O=C(Nc1cccc([C@H]2CCCN(c3ncnc4[nH]ccc34)C2)c1)Nc1ccccc1N1CCCC1
- inhibition [13]: 36%
- inhibition [14]: 70%
- inhibition [15]: 0.45%
- inhibition [16]: 35%
- inhibition [17]: 100%
- inhibition [18]: 100%
- inhibition [19]: 24%
- inhibition [20]: 83%
- inhibition [21]: 100%
- inhibition [22]: 78%
- inhibition [23]: 1.1%
- inhibition [24]: 81%
- inhibition [25]: 98%
- inhibition [26]: 43%
- inhibition [27]: 100%
